Measurements published in patent US6441036B1 (priority 1998, dated 2002).

Legend:
[1] = system: Salmonella typhimurium; assay: Test for mutagenic activity in Salmonella typhimurium strains; type: cell-based; conditions: 3-1000 mg/plate (TTA), 2-5000 mg/plate (TSA)
From the text: (§1) Tests for mutagenic activity have been performed by Covance Laboratories Limited, England. […] Furthermore, TTA was not mutagenic when tested in mouse lymphoma cells […] L5178Y.

[2] = system: Escherichia coli; assay: Test for mutagenic activity in Escherichia coli strains; type: cell-based; conditions: 3-1000 mg/plate (TTA), 2-5000 mg/plate (TSA)
From the text: as §1

[3] = system: mouse lymphoma cells, L5178Y; assay: Mutagenicity test in mouse lymphoma cells L5178Y; type: cell-based; conditions: concentration 2.5-50 mg/ml
From the text: as §1

[4] = Lipid lowering effect in normal Wistar rats (Example 4); type: in vivo; conditions: gavage once daily for 7 days; dose mg/day/kg body weight: TSA 15, EPA 1500, TTA 150
Description: Male Wistar rats, weighing 180-200 g at the start of the experiment, were housed individually in metal wire cages in a room maintained at 12 h light-dark cycles and a constant temperature of 20±3° C. The animals were acclimatised for one week under these conditions before the start of the experiments.
TTA, TSA and eicosapentaenoic acid (EPA) were suspended in 0.5% (w/v) carboxymethyl cellulose (CMC). Six animals were used for each treatment, and a 0.5% CMC solution was administrated to the rats as control. After administration of the test compound, the rats were fasted for 12 hours and anaesthetised with haloethan. The EPA and the fatty acid derivatives were administered by gastric intubation (gavage) once daily for 7 days. Blood samples were collected by cardiac puncture, and lipid concentrations in plasma were determined as outlined in the method section.

[5] = Body weight gain, liver and adipose tissue weight in young obese Zucker rats (Example 9); type: in vivo, obese Zucker (fa/fa) rats; conditions: 5 week-old male rats, TTA 300/kg/day in 0.5% CMC, 11 days; means ± SD
Description: The obese Zucker (fa/fa) rats used in this study were bred at the U 465 INSERM animal facility from pairs originally provided by the Harriet G. Bird Laboratory (Stow, Mass., USA). Unless otherwise stated, the animals were maintained under a constant light-dark cycle (light from 7:00 a.m. to 7:00 p.m.) at 21±1° C. and were given free access to food and water. Three rats were housed per cage. Weight gains were recorded daily.
5 week-old male obese Zucker (fa/fa) rats fed with TTA, 300/kg/day suspended in 0.5% CMC. Control animals received CMC only. Following 11 days of treatment, rats were killed by cervical dislocation, liver and epididymal adipose tissue pads were dissected out and weighed. Data are means±SD of 6 animals in the control- and 6 animals in the experimental group.

[6] = Weight reduction in dogs (Example 10); type: in vivo; conditions: male dogs, 500 mg/kg/day orally in capsules
Description: 3 male dogs (4-6 months old) were housed singly during the days. Each animal was offered 400g of SQC Diet A each morning after dosing and any residue diet was removed in the afternoon. The drug was administered orally in capsules once daily for 28 days.

[7] = High fat diet induced hyperinsulinemia (Example 11); type: in vivo, Wistar Charles River rats; conditions: HF diet supplemented with TTA, 21 days, overnight fast
Description: (§2) Glucose (GLU, Boehringer Mannheim, Germany), free fatty acids (NEFA, C ACS-ACOD kit; Wako Chemicals, Dalton, USA) and b-hydroxybutyrate (310-A kit; Sigma Diagnostics Inc., St. Louis, USA) concentrations were measured using enzymatic methods. Insulin concentrations were determined with radioimmunoassay by (CIS bio International, Gif sur Yvette, France) using rat insulin as standard in the Zucker rats. In the Wistar Charles River rats, plasma glucose concentrations were measured with the aid of Beckman Glucose Analyzer (Fullerton, Calif., USA). Plasma insulin levels were measured using a RIA kit from Linco Research Inc. (St. Charles, Mo., USA). Phospholipids were measured by the enzymatic method of bioMérieux, Marcy-l{grave over ( )}Etoile, France, Triacylglycerol by the Technicon Method no. SA4-0324L90, USA and Cholesterol by the Technicon Method no. SA4-0305L90, USA.
Rats weighing 280-360 g were divided into 3 groups (n=6) and fed with three different diets: standard rat chow, high fat diet (HF) and HF supplemented with TTA. After 21 days on their respective diets, blood was collected after an overnight fast from the tail vein. The data are shown as mean±SEM. Results were analysed by ANOVA and different letters denote statistical significance (p<0.05).

[8] = Blood insulin and glucose in 5 weeks old Zucker (fa/fa) rats (Example 13); type: in vivo; conditions: 300 mg/kg/day by oral gavage, 11 days
Description: as §2
The rats were administered TTA at a dose of 300 mg/kg/day suspended in 0.5% CMC (n=6) by oral gavage. Following 11 days of treatment, rats were killed by cervical dislocation. Blood was collected and the levels of insulin and glucose measured as indicated in the method section. Data are means±S.D.

[9] = Blood insulin and glucose in 4 month old obese Zucker (fa/fa) rats (Example 13); type: in vivo; conditions: standard chow with 0.15% TTA, 21 days
Description: as §2
The rats were given a standard chow diet, either with (n=5) or without (n=6) 0.15% TTA. Following 21 days of treatment, blood was collected and the levels of insulin and glucose measured. Data are means±S.D.

[10] = Intravenous glucose tolerance test (IVGTT); type: in vivo; conditions: 5 weeks old Zucker (fa/fa) rats
Description: Male Zucker (fa/fa) rats (5 weeks old) were anaesthetised after a 5-hours fast, by intraperitoneal injection of sodium pentobarbital (50 mg/kg). The rats were injected with glucose (0.55 g/kg) in the saphenous vein and blood samples were collected from the tail vein in heparinized tubes at time 0, 5, 10, 15, 20 and 30 minutes after the glucose load. Samples were kept on ice, centrifuged and plasma was stored at −20° C. until analysis.

[11] = Plasma free fatty acids and ketone bodies in old obese Zucker rats; type: in vivo, obese Zucker (fa/fa) rats; conditions: 21 week-old male rats, standard diet enriched with 0.15% TTA for 15 days; means ± SD
Description: as §2
Data are means±SD of six animals in both the control- and the experimental group. Free fatty acids (FFA) and ketone bodies (4-hydroxy butyrate)were measured in plasma and 3-hydroxy-3-methylglutaryl (HMG)—CoA synthase activities were measured in mitochondrial fractions prepared from the liver from 21 week-old male obese Zucker (fa/fa) rats given either a standard diet (control) or a standard diet enriched with 0.15% TTA for 15 days.

[12] = Fatty acid composition in liver and plasma of obese Zucker fa/fa rats (Example 19); type: in vivo; conditions: 300 mg/day/kg by gavage once daily for 10 days
Description: Male obese Zucker fa/fa rats, weighing 100 g at the start of the experiment, were housed in pairs in metal wire cages in a room maintained at 12 h light-dark cycles and a constant temperature of 20±° C. The animals were acclimatised for at least one week under these conditions before the start of the experiment.
TTA and palmitic acid (control), was suspended in 0.5% (w/v) carboxymethyl cellulose (CMC) and administered at a dose of 300 mg/day/kg body weight, by gastric intubation (gavage) once daily for 10 days. The rats were fasted for 2 hours before termination of the experiment. Blood and organs were collected. Total lipids were extracted from liver and plasma. The lipids were evaporated, saponified and esterified prior to separation using a Carlo Erba 2900 gas-chromatograph.

[13] = Fatty acid content after 12 weeks administration to rats; type: in vivo; conditions: administration to rats for 12 weeks
[14] = Plasma lipids after feeding moderate doses to animals; type: in vivo, rats, mice, rabbits and dogs; conditions: within days of treatment

Tetradecylthioacetic acid [TTA]
Induction of mutations [1]: did not induce mutations | Induction of mutations [2]: did not induce mutations | Mutagenicity [3]: not mutagenic | Plasma lipids: cholesterol [4]: 30 % reduction of control | Plasma lipids: triglycerides [4]: 45 % reduction of control | Body weight gain [5]: 6.23 ± 0.28 g/day | Mean body weight ([6]; week 0): 9.22 kg | Mean body weight ([6]; week 1): 8.95 kg | Mean body weight ([6]; week 2): 8.75 kg | Mean body weight ([6]; week 3): 8.58 kg | Mean body weight ([6]; week 4): 8.50 kg | High fat diet-induced hyperinsulinemia (FIG. 3) [7]: prevents high fat diet-induced hyperinsulinemia | Reduction of blood concentration of glucose (FIG. 5) [8]: ~15% | Reduction of blood insulin concentration (FIG. 5) [8]: ~40% | Blood glucose concentration (FIG. 6) [9]: reduces | Blood insulin concentration (FIG. 6) [9]: reduces | IVGTT glucose curves (FIG. 7B) ([10]; TTA treated versus control): normal and comparable | Plasma insulin response to glucose (FIG. 7A) ([10]; glucose 0.55 g/kg i.v.): significantly lower | 4-OH butyrate (plasma ketone bodies) [11]: 3.44 ± 1.37 mmol/L | FFA (plasma free fatty acids) [11]: 0.53 ± 0.21 mEq/L | Fatty acid composition in liver: Monounsaturated tetradecylthioacetic acid [12]: 1.1 ± 0.2 % of total | Fatty acid composition in liver: Oleic acid [12]: 14.9 ± 1.0 % of total | Fatty acid composition in plasma: Monounsaturated tetradecylthioacetic acid [12]: 0.2 ± 0.1 % of total | Fatty acid composition in plasma: Oleic acid [12]: 22.1 ± 0.5 % of total | Hepatic and plasma content of monounsaturated fatty acids (mainly oleic acid) [13]: nearly doubled | Polyunsaturated fatty acids (mainly linoleic acid and DHA) [13]: decreased | Plasma cholesterol and triacylglycerol levels [14]: decreased
